# From US5430018A, “Cyclohexapeptide with basic nitrogen containing alkylamide groups” (priority 1991, dated 1995)
# Numbered stars: 1 amine (or outer) side, 2 acyl side, 3 side chain; on linkers, the order of the positions; unused ones are H or OH. Bridge positions count the residues as written; N and C are the ends. Square brackets hold non-standard residues; d marks the D form. Peptide text beside a SMILES is read from it. * marks the point of attachment. Tetradecanoyl(10R,12S-Me2) = CC[C@H](C)C[C@H](C)CCCCCCCCC(=O)*; Orn(4R-OH) = O=C([C@H](C[C@@H](O)CN[*:3])N[*:1])[*:2]; hTyr(3R-OH) = N[C@H](C(=O)O)[C@H](O)Cc1ccc(O)cc1; X1 = COC(=O)C[C@@H](O)[C@H](N[*:1])C(=O)[*:2]; X2 = O=C(O)C[C@@H](O)[C@H](N[*:1])C(=O)[*:2]; Pro(3S-OH) = O=C(O)[C@H]1NCC[C@@H]1O; Hyp = O=C(O)[C@@H]1C[C@@H](O)CN1
# Experiments:
# C. albicans MY 1028 = assay type: cell-based, Candida albicans; settings: MY 1028, 24 h
# C. albicans MY 1055 = assay type: cell-based, Candida albicans; settings: MY 1055, 24 h
# Description: The compounds of the present invention are active against many fungi and particularly against Candida species. The antifungal properties maybe illustrated with the minimum fungicidal concentration (MFC) determination against certain Candida organisms in a microbroth dilution assay carried out in a Yeast Nitrogen Base (Difco) medium with 1% dextrose (YNBD). In separate assays, the compounds (all Seq. ID No. 1) were solubilized in 10% dimethyl sulfoxide (DMSO) and diluted to 2560 μg/ml. The solution was then diluted to 256 μg/ml in YNBD and dispensed via a multichannel pipetter into the top row of a 96-well plate (each well containing 0.15 ml of YNBD), resulting in a drug concentration of 128 μg/ml. Compounds in the top row were diluted 2-fold down the columns yielding final drug concentrations ranging from 128-0.06 μg/ml. All tests were performed in duplicate. A four-hour broth culture of C. albicans MY 1055 was adjusted using a spectrophotometer at 530 nm to equal a 0.5 McFarland Standard. This yields a cell concentration of 1-5×10^6 colony forming units (CFU)/ml. The 96-well microplates were inoculated using an MIC-2000 (Dynatech), which delivers […] per well, yielding a final inoculum per well of 1.5-7.5×10^3 cells. One column per tray containing drug-free growth control wells was included. […]
Structure (SMILES),MFC C. albicans MY 1028 (C. albicans MY 1028),MFC C. albicans MY 1055 (C. albicans MY 1055)
"CC[C@H](C)C[C@H](C)CCCCCCCCC(=O)N[C@H]1C[C@@H](O)CNC(=O)[C@@H]2[C@@H](O)CCN2C(=O)[C@H]([C@H](O)CC(=O)O)NC(=O)[C@H]([C@H](O)Cc2ccc(O)cc2)NC(=O)[C@@H]2C[C@@H](O)CN2C(=O)[C@H]([C@@H](C)O)NC1=O [acid] ({Tetradecanoyl(10R,12S-Me2)}-[Orn(4R-OH)]T[Hyp][hTyr(3R-OH)][X2][Pro(3S-OH)]; lactam 1-C)",1 µg/mL,0.5 µg/mL
"CC[C@H](C)C[C@H](C)CCCCCCCCC(=O)N[C@H]1C[C@@H](O)CNC(=O)[C@@H]2[C@@H](O)CCN2C(=O)[C@H]([C@H](O)CC(=O)OC)NC(=O)[C@H]([C@H](O)Cc2ccc(O)cc2)NC(=O)[C@@H]2C[C@@H](O)CN2C(=O)[C@H]([C@@H](C)O)NC1=O [methyl ester] ({Tetradecanoyl(10R,12S-Me2)}-[Orn(4R-OH)]T[Hyp][hTyr(3R-OH)][X1][Pro(3S-OH)]; lactam 1-C)",0.25 µg/mL,0.5 µg/mL
